Read-outs that look alike come from different tables or passages of the source. Starred links: 1 amine or outer side, 2 acyl side, 3 side chain; linkers in the order of their positions; H or OH if unused. Positions of bridges follow the written chain, without caps; N, C: chain ends. Non-standard residues stand in square brackets, D forms with d. Residues, ends and D or L forms follow the SMILES beside them. Groups on a side chain read outwards from the residue. ξ: configuration not given here. *: point of attachment. X17 = CSC[C@H](N)C(=O)NC(C)C(N[*:1])C(=O)[*:2]; ξAbu(βξ-NH2) = CC(N[*:3])C(N[*:1])C(=O)[*:2]; Pentadecanoyl = CCCCCCCCCCCCCCC(=O)*; ξAsp(βξ-Me) = CC(C(=O)O)C(N)C(=O)O; X1 = O=C(Cc1ccc(N[*:1])cc1)[*:2]; ξAbu(3ξ-NH2) = CC(N)C(N)C(=O)O; Lauroyl = CCCCCCCCCCCC(=O)*; Decanoyl = CCCCCCCCCC(=O)*; 4Abz = Nc1ccc(C(=O)O)cc1; Dab = NCC[C@H](N)C(=O)O; Pip = O=C(O)[CH]1CCCCN1; ξD = NC(CC(=O)O)C(=O)O; ξPip = O=C(O)C1CCCCN1; ξV = CC(C)C(N)C(=O)O; ξP = O=C(O)C1CCCN1; GABA = NCCCC(=O)O; Sar = CNCC(=O)O
Tested on: Staphylococcus aureus (MSSA)
How it was run: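 Broth microdilution MIC per NCCLS M7-A6 with doubling serial dilutions, in cation-adjusted Mueller-Hinton broth supplemented with 0.625 mM calcium.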

[1] = S. aureus (MSSA), CAMHB supplemented with 0.625 mM calcium, 24 hours at about 37° C., a range = compound tested multiple times

Row | MIC (24 h) | MIC [1] | SMILES
1 | 8 µg/mL |  | CCCCCCCCCC(=O)Nc1ccc(CC(=O)NC(CC(=O)O)C(=O)NC2C(=O)N3CCCCC3C(=O)NC(C(C)C(=O)O)C(=O)NC(CC(=O)O)C(=O)NCC(=O)NC(CC(=O)O)C(=O)NCC(=O)NC(C(C)N)C(=O)NC(C(C)C)C(=O)N3CCCC3C(=O)NC2C)cc1 (stereo not drawn) [Compound 122, CH3—(CH2)9-(p-Apa)-Amphomycin] (Decanoyl-[X1]D[ξAbu(βξ-NH2)][Pip][ξAsp(βξ-Me)]DGDG[ξAbu(3ξ-NH2)]VP; lactam 3-C; configuration not given here; N-terminus assumed)
2 |  | 125/1-2 μg/mL | CCCCCCCCCCCCCC(=O)NC(CC(=O)O)C(=O)NC1C(=O)N2CCCCC2C(=O)NC(C(C)C(=O)O)C(=O)NC(CC(=O)O)C(=O)NCC(=O)NC(CC(=O)O)C(=O)NCC(=O)NC(C(C)NC(=O)CNC(=O)[C@@H](N)CCCCN)C(=O)NC(C(C)C)C(=O)N2CCCC2C(=O)NC1C (stereo partly drawn) [Compound 125, C14-Amphomycin-9-Gly-Lys]
3 |  | 127/4 μg/mL | CCCCCCCCCCCCCC(=O)NC(CC(=O)O)C(=O)NC1C(=O)N2CCCCC2C(=O)NC(C(C)C(=O)O)C(=O)NC(CC(=O)O)C(=O)NCC(=O)NC(CC(=O)O)C(=O)NCC(=O)NC(C(C)NC(=O)[C@@H](N)CCCN)C(=O)NC(C(C)C)C(=O)N2CCCC2C(=O)NC1C (stereo partly drawn) [Compound 127, C14-Amphomycin-9-Orn]
4 |  | 134/32 μg/mL | CCCCCCCCCCCCC(=O)NC(CC(=O)O)C(=O)NC1C(=O)N2CCCCC2C(=O)NC(C(C)C(=O)O)C(=O)NC(CC(=O)O)C(=O)NCC(=O)NC(CC(=O)O)C(=O)NCC(=O)NC(C(C)NC(=O)[C@@H](N)CCCN)C(=O)NC(C(C)C)C(=O)N2CCCC2C(=O)NC1C (stereo partly drawn) [Compound 134, C13-Amphomycin-9-Orn]
5 |  | 136/4 μg/mL | CCCCCCCCCCCCC(=O)NC(CC(=O)O)C(=O)NC1C(=O)N2CCCCC2C(=O)NC(C(C)C(=O)O)C(=O)NC(CC(=O)O)C(=O)NCC(=O)NC(CC(=O)O)C(=O)NCC(=O)NC(C(C)NC(=O)[C@@H](N)CN)C(=O)NC(C(C)C)C(=O)N2CCCC2C(=O)NC1C (stereo partly drawn) [Compound 136, C13-Amphomycin-9-Dap]
6 |  | 140/32 μg/mL | CCCCCCCCCCCCCC(=O)NC(CC(=O)O)C(=O)NC1C(=O)N2CCCCC2C(=O)NC(C(C)C(=O)O)C(=O)NC(CC(=O)O)C(=O)NCC(=O)NC(CC(=O)O)C(=O)NCC(=O)NC(C(C)NC(=O)[C@@H](N)CN)C(=O)NC(C(C)C)C(=O)N2CCCC2C(=O)NC1C (stereo partly drawn) [Compound 140, C14-Amphomycin-9-Dap]
7 |  | 141/2 μg/mL | CCCCCCCCCCCCCCCC(=O)NC(CC(=O)O)C(=O)NC1C(=O)N2CCCCC2C(=O)NC(C(C)C(=O)O)C(=O)NC(CC(=O)O)C(=O)NCC(=O)NC(CC(=O)O)C(=O)NCC(=O)NC(C(C)NC(=O)CNC(=O)[C@@H](N)CCCCN)C(=O)NC(C(C)C)C(=O)N2CCCC2C(=O)NC1C (stereo partly drawn) [Compound 141, C16-Amphomycin-9-Gly-Lys]
8 |  | 143/2-4 μg/mL | CCCCCCCCCCCC(=O)NC(CC(=O)O)C(=O)NC1C(=O)N2CCCCC2C(=O)NC(C(C)C(=O)O)C(=O)NC(CC(=O)O)C(=O)NCC(=O)NC(CC(=O)O)C(=O)NCC(=O)NC(C(C)NC(=O)CNC(=O)[C@@H](N)CCCCN)C(=O)NC(C(C)C)C(=O)N2CCCC2C(=O)NC1C (stereo partly drawn) [Compound 143, C12-Amphomycin-9-Gly-Lys]
9 | 4 µg/mL |  | CCCCCCCCCCCCCCC(=O)NC(CC(=O)O)C(=O)NC1C(=O)N2CCCCC2C(=O)NC(C(C)C(=O)O)C(=O)NC(CC(=O)O)C(=O)NCC(=O)NC(CC(=O)O)C(=O)NCC(=O)NC(C(C)NC(=O)CN(C)C(=O)[C@@H](N)CCCN)C(=O)NC(C(C)C)C(=O)N2CCCC2C(=O)NC1C (stereo partly drawn) [Compound 144, C15-Amphomycin-9-Sar-Orn]
10 | 2 µg/mL |  | CCCCCCCCCCCCCCC(=O)NC(CC(=O)O)C(=O)NC1C(=O)N2CCCCC2C(=O)NC(C(C)C(=O)O)C(=O)NC(CC(=O)O)C(=O)NCC(=O)NC(CC(=O)O)C(=O)NCC(=O)NC(C(C)NC(=O)CN(C)C(=O)[C@@H](N)CCN)C(=O)NC(C(C)C)C(=O)N2CCCC2C(=O)NC1C (stereo partly drawn) [Compound 145, C15-Amphomycin-9-Sar-gDab] (Pentadecanoyl-[ξD][ξAbu(βξ-NH2)][ξPip][ξAsp(βξ-Me)][ξD]G[ξD]G[ξAbu(βξ-NH2)]([Sar-Dab])[ξV][ξP]; lactam 2-C)
11 | 2 µg/mL |  | CCCCCCCCCCCCCCC(=O)NC(CC(=O)O)C(=O)NC1C(=O)N2CCCCC2C(=O)NC(C(C)C(=O)O)C(=O)NC(CC(=O)O)C(=O)NCC(=O)NC(CC(=O)O)C(=O)NCC(=O)NC(C(C)NC(=O)CN(C)C(=O)[C@@H](N)CN)C(=O)NC(C(C)C)C(=O)N2CCCC2C(=O)NC1C (stereo partly drawn) [Compound 146, C15-Amphomycin-9-Sar-Dap]
12 | 0.5 to 1 µg/mL |  | CCCCCCCCCCCCCCC(=O)NC(CC(=O)O)C(=O)NC1C(=O)N2CCCCC2C(=O)NC(C(C)C(=O)O)C(=O)NC(CC(=O)O)C(=O)NCC(=O)NC(CC(=O)O)C(=O)NCC(=O)NC(C(C)NC(=O)CCNC(=O)[C@@H](N)CCCN)C(=O)NC(C(C)C)C(=O)N2CCCC2C(=O)NC1C (stereo partly drawn) [Compound 148, C15-Amphomycin-9-(β-Ala)-Orn]
13 | 16 µg/mL |  | CCCCCCCCCCCCCCC(=O)NC(CC(=O)O)C(=O)NC1C(=O)N2CCCCC2C(=O)NC(C(C)C(=O)O)C(=O)NC(CC(=O)O)C(=O)NCC(=O)NC(CC(=O)O)C(=O)NCC(=O)NC(C(C)NC(=O)[C@H]2CCCN2C(=O)[C@H](N)CCCCN)C(=O)NC(C(C)C)C(=O)N2CCCC2C(=O)NC1C (stereo partly drawn) [Compound 151, C15-Amphomycin-9-(D-Pro)-(D-Lys)]
14 | 2 µg/mL |  | CCCCCCCCCCCCCCC(=O)NC(CC(=O)O)C(=O)NC1C(=O)N2CCCCC2C(=O)NC(C(C)C(=O)O)C(=O)NC(CC(=O)O)C(=O)NCC(=O)NC(CC(=O)O)C(=O)NCC(=O)NC(C(C)NC(=O)CNC(=O)[C@@H](N)CCCN)C(=O)NC(C(C)C)C(=O)N2CCCC2C(=O)NC1C (stereo partly drawn) [Compound 153, C15-Amphomycin-9-Gly-Orn]
15 | 4 µg/mL |  | CCCCCCCCCCCCCCC(=O)NC(CC(=O)O)C(=O)NC1C(=O)N2CCCCC2C(=O)NC(C(C)C(=O)O)C(=O)NC(CC(=O)O)C(=O)NCC(=O)NC(CC(=O)O)C(=O)NCC(=O)NC(C(C)NC(=O)CNC(=O)[C@@H](N)CCN)C(=O)NC(C(C)C)C(=O)N2CCCC2C(=O)NC1C (stereo partly drawn) [Compound 154, C15-Amphomycin-9-Gly-gDab]
16 | 8 µg/mL |  | CCCCCCCCCCCCCCC(=O)NC(CC(=O)O)C(=O)NC1C(=O)N2CCCCC2C(=O)NC(C(C)C(=O)O)C(=O)NC(CC(=O)O)C(=O)NCC(=O)NC(CC(=O)O)C(=O)NCC(=O)NC(C(C)NC(=O)CCNC(=O)[C@@H](N)CCCCN)C(=O)NC(C(C)C)C(=O)N2CCCC2C(=O)NC1C (stereo partly drawn) [Compound 155, C15-Amphomycin-9-(β-Ala)-Lys]
17 | 1 µg/mL |  | CCCCCCCCCCCCCCC(=O)NC(CC(=O)O)C(=O)NC1C(=O)N2CCCCC2C(=O)NC(C(C)C(=O)O)C(=O)NC(CC(=O)O)C(=O)NCC(=O)NC(CC(=O)O)C(=O)NCC(=O)NC(C(C)NC(=O)CCCNC(=O)[C@@H](N)CCCCN)C(=O)NC(C(C)C)C(=O)N2CCCC2C(=O)NC1C (stereo partly drawn) [Compound 156, C15-Amphomycin-9-GABA-Lys]
18 | 4 to 8 µg/mL |  | CCCCCCCCCCCCCCC(=O)NC(CC(=O)O)C(=O)NC1C(=O)N2CCCCC2C(=O)NC(C(C)C(=O)O)C(=O)NC(CC(=O)O)C(=O)NCC(=O)NC(CC(=O)O)C(=O)NCC(=O)NC(C(C)NC(=O)CNC(=O)[C@@H](N)CN)C(=O)NC(C(C)C)C(=O)N2CCCC2C(=O)NC1C (stereo partly drawn) [Compound 157, C15-Amphomycin-9-Gly-Dap]
19 | 1 to 2 µg/mL |  | CCCCCCCCCCCCCCC(=O)NC(CC(=O)O)C(=O)NC1C(=O)N2CCCCC2C(=O)NC(C(C)C(=O)O)C(=O)NC(CC(=O)O)C(=O)NCC(=O)NC(CC(=O)O)C(=O)NCC(=O)NC(C(C)NC(=O)CNC(=O)[C@@H](N)CCCCCN)C(=O)NC(C(C)C)C(=O)N2CCCC2C(=O)NC1C (stereo partly drawn) [Compound 158, C15-Amphomycin-9-Gly-hLys]
20 | 0.5 to 1 µg/mL |  | CCCCCCCCCCCCCCC(=O)NC(CC(=O)O)C(=O)NC1C(=O)N2CCCCC2C(=O)NC(C(C)C(=O)O)C(=O)NC(CC(=O)O)C(=O)NCC(=O)NC(CC(=O)O)C(=O)NCC(=O)NC(C(C)NC(=O)CCCNC(=O)[C@@H](N)CCN)C(=O)NC(C(C)C)C(=O)N2CCCC2C(=O)NC1C (stereo partly drawn) [Compound 159, C15-Amphomycin-9-GABA-gDab] (Pentadecanoyl-[ξD][ξAbu(βξ-NH2)][ξPip][ξAsp(βξ-Me)][ξD]G[ξD]G[ξAbu(βξ-NH2)]([GABA-Dab])[ξV][ξP]; lactam 2-C)
21 | 8 µg/mL |  | CCCCCCCCCCCCCCC(=O)NC(CC(=O)O)C(=O)NC1C(=O)N2CCCCC2C(=O)NC(C(C)C(=O)O)C(=O)NC(CC(=O)O)C(=O)NCC(=O)NC(CC(=O)O)C(=O)NCC(=O)NC(C(C)NC(=O)C(C)(C)N)C(=O)NC(C(C)C)C(=O)N2CCCC2C(=O)NC1C (stereo not drawn) [Compound 161, C15-Amphomycin-9-Aib]
22 | 8 µg/mL |  | CCCCCCCCCCCCCCC(=O)NC(CC(=O)O)C(=O)NC1C(=O)N2CCCCC2C(=O)NC(C(C)C(=O)O)C(=O)NC(CC(=O)O)C(=O)NCC(=O)NC(CC(=O)O)C(=O)NCC(=O)NC(C(C)NC(=O)[C@@H](N)CSC)C(=O)NC(C(C)C)C(=O)N2CCCC2C(=O)NC1C (stereo partly drawn) [Compound 162, C15-Amphomycin-9-MeCys] (Pentadecanoyl-[ξD][ξAbu(βξ-NH2)][ξPip][ξAsp(βξ-Me)][ξD]G[ξD]G[X17][ξV][ξP]; lactam 2-C)
23 | 8 µg/mL |  | CCCCCCCCCCCCCCC(=O)NC(CC(=O)O)C(=O)NC1C(=O)N2CCCCC2C(=O)NC(C(C)C(=O)O)C(=O)NC(CC(=O)O)C(=O)NCC(=O)NC(CC(=O)O)C(=O)NCC(=O)NC(C(C)NC(=O)[C@@H](N)CCC)C(=O)NC(C(C)C)C(=O)N2CCCC2C(=O)NC1C (stereo partly drawn) [Compound 163, C15-Amphomycin-9-Nvl]

Row | SMILES | MIC (24 h) | MIC [1]
24 | CCCCCCCCCCCC(=O)Nc1ccc(C(=O)NCC(=O)NC(CC(=O)O)C(=O)NC2C(=O)N3CCCCC3C(=O)NC(C(C)C(=O)O)C(=O)NC(CC(=O)O)C(=O)NCC(=O)NC(CC(=O)O)C(=O)NCC(=O)NC(C(C)N)C(=O)NC(C(C)C)C(=O)N3CCCC3C(=O)NC2C)cc1 (stereo not drawn) [Compound 123, C12-PABA-Gly-Amphomycin] ({Lauroyl-4Abz}-GD[ξAbu(βξ-NH2)][Pip][ξAsp(βξ-Me)]DGDG[ξAbu(3ξ-NH2)]VP; lactam 3-C; configuration not given here) | 1 µg/mL | 
